US20030027820A1, “Method for treating fibrotic diseases or other indications V” (Alteon, Inc., priority 2001, published 2003)
Counter-ions that a name gives are not always drawn.

Columns and labels:
Type IV collagen = assay: In situ hybridization studies, Type IV collagen; type: in vivo
Description: (§1) Cardiovascular risk correlates more closely with the systolic and the pulse pressure than with the diastolic pressure. In diabetic patients, the cardiovascular risk profile of diabetic patients is strongly correlated to duration of diabetes, glycemic control and blood pressure. Structural matrix proteins contribute to the function of vessels and the heart, and changes in the physical behavior of cardiovascular walls are believed to be important determinants of circulatory function. In elderly individuals, the loss of compliance in the aorta leads to isolated systolic hypertension, which in turn expands the arterial wall and thereby diminishes the dynamic range of elasticity. Loss of compliance also results in the development of left ventricular hypertrophy.

[1] = Dog model for diabetes, ventricular elasticity; type: in vivo
Description: as §1

TGFbeta = assay: In situ hybridization studies, TGFbeta; type: in vivo
Description: as §1

[2] = In vivo studies of vascular stiffening in rodents, canines and primates
Description: as §1

Phase IIa clinical trial = type: in vivo, human
Description: When the heart pumps blood into the vascular system, the ability of the arteries to expand helps to push blood through the body. When arteries become stiff, as they do in the natural process of aging, the ability of the arteries to expand is diminished and also has consequences for the heart. The heart has to work harder to pump the blood into the stiff arteries, and eventually hypertrophies (enlarges in size) to accomplish this. A hypertrophied heart is an inefficient pump, and is one of the disorders that leads to congestive heart failure. […] The potential clinical benefit of this is to lessen the effort that the heart must expend to push blood throughout the body. The effect is also believed to contribute to preventing hypertrophy and subsequent inefficiency of the heart, which inefficiency would contribute to congestive heart failure.
Atherosclerosis is a disease that involves deposition of blood lipids in plaque in the arteries throughout the body. In coronary arteries, accumulation of plaque progressively leads to reduced coronary flow, with occlusion of the arteries causing focal death of cardiac tissue (myocardial infarction, heart attack). If the amount of tissue that dies is large enough, death ensures. […] Reducing local deposits of plaque should eventually lessen the risk of myocardial infarction and death due to heart attacks.
Pulse pressure is the difference between systolic and diastolic blood pressure. In a young human, systolic pressure is typically 120 mm Hg and diastolic pressure is 80 mm Hg, resulting in a pulse pressure of 40 mm Hg. With age, in many individuals pulse pressure increases, largely due to the increase in systolic pressure that results from stiff vessel disease. In individuals with pulse pressure greater than 60 mm Hg there is an increased risk of death from cardiovascular morbidities.

[3] = tested on: collagen in cardiovascular tissues; assay: Mass of collagen in cardiovascular tissues after treatment; type: in vivo
Description: as §1

For `Cc1sc[n+](CC(=O)c2ccccc2)c1C` [3-[2-phenyl-2-oxoethyl]-4,5-dimethyl-thiazolium salt], the “expression of Type IV collagen” value (Type IV collagen) was “reduces the expression of both Type IV collagen and TGFbeta”, the “end diastolic pressure (indicator of ventricular elasticity)” value [1] was “returned to a value at about the mid-point between the disease impaired value and the value for control dogs” and the “end diastolic volume (indicator of ventricular elasticity)” value [1] was “returned to a value at about the mid-point between the disease impaired value and the value for control dogs”. The “expression of TGFbeta” value (TGFbeta) was “reduces the expression of both Type IV collagen and TGFbeta”, the vascular stiffening [2] was “substantially ameliorating vascular stiffening” and the “stiffness of arteries, as measured by the ratio of stroke volume (ml) to pulse pressure (mm Hg)” value (Phase IIa clinical trial; Phase IIa clinical trial) was “showed an ability to reverse the stiffness of arteries”. For the same compound, the “amount of circulating triglycerides (lipids)” value (Phase IIa clinical trial; Phase IIa trial) was “increased the amount of circulating triglycerides”, the systolic blood pressure (Phase IIa clinical trial; Phase IIa trial, believed to be the primary cause of the pulse pressure decrease) was “lowering the systolic blood pressure” and the pulse pressure (Phase IIa clinical trial; Phase IIa trial, elderly patients with pulse pressures greater than 60 mm Hg) was “reduced pulse pressure in elderly patients with pulse pressures greater than 60 mm Hg in a statistically significant manner”. The “mass of collagen in cardiovascular tissues” value [3] was “reduction in the mass of collagen in cardiovascular tissues”.
